Here are results for 15 compounds from patent US20110059940A1, “2-Aryl Glycinamide Derivatives” (Bristol- Myers Squibb Company, priority 2008, published 2011).

Like-named read-outs stand apart in the source and are kept apart here.

This assay concerns β-amyloid peptide formation in human H4 cells. The assay is described as follows: Inhibition of β-amyloid peptide (Aβ) formation in H4 cells overexpressing HPLAP-APP fusion protein. It is filed as cell-based. As to the method:
γ-Secretase inhibitors were also evaluated using in vitro assays based on the inhibition of Aβ formation in cultured cells. Cultured human cell lines, such as HEK293 and H4 cells, which express APP and γ-secretase activity or transfected derivative cell lines that overexpress wild-type APP, mutant APP, or APP fusion proteins will secrete Aβ peptides into the culture media that can be quantified as previously outlined (Dovey, H. et al., J. Neurochem. 2001, 76, 173). The incubation of these cultured cells with γ-secretase inhibitors decreases the production of Aβ peptides. For instance, H4 cells stably transfected to overexpress the HPLAP-APP fusion protein described above were grown as above, detached, and adjusted to 2×10^5 cells/ml. 100 μl of the resulting suspension was then added to each well of a 96-well plate. After 4 hrs, the media was removed and replaced with 100 μl serum-free media containing various dilutions of the test compound. Plates were then incubated for 18 hrs at 37° C. and a 100 μl aliquot of the tissue culture supernatant was removed for determination of Aβ levels using time-resolved fluorescence of the homogenous sample as outlined above. The extent of Aβ inhibition was used to calculate the IC50 value for the test compound.
Representative compounds were evaluated in the above assay and were determined to inhibit Aβ formation.

Setting [1] is: class symbol, read-out: Binding affinity (IC50 in nM), activity class.
[2] abbreviates: number in parentheses, read-out: Binding affinity (IC50 in nM).

What is called IC50 is the concentration at which inhibition is half-maximal. Regarding `N#Cc1ccc(CN(C(C(N)=O)c2cc(F)cc(F)c2)S(=O)(=O)c2ccc(Cl)cc2)cc1` (stereo not drawn) [Example 16, α-[(4-Chlorobenzenesulfonyl)(4-cyanophenylmethyl)amino]-3,5-difluorobenzene-acetamide], the IC50 is 0.25 to 50 nM under setting [1] and 12.4 nM under setting [2].

Consider `NC(=O)C(c1cc(F)cc(F)c1)N(Cc1ccc(C(=O)N2CCC2)cc1)S(=O)(=O)c1ccc(Cl)cc1` (stereo not drawn) [Example 5, α-[(4-Chlorobenzenesulfonyl)(4-azetidinylcarbonylphenylmethyl)amino]-3,5-difluorobenzene-acetamide], for which, under setting [1], the IC50 was in the range of 0.25 to 50 nM.

On to `CC(C)(C)OC(=O)c1ccc(CN(C(C(N)=O)c2cc(F)cc(F)c2)S(=O)(=O)c2ccc(Cl)cc2)cc1` (stereo not drawn) [Example 1, α-[(4-Chlorobenzenesulfonyl)((4-t-butyloxycarbonylphenyl)methyl)amino]-3,5-difluorobenzeneacetamide], for which the IC50 under setting [1] lay within 0.25 to 50 nM.

For `NC(=O)C(c1cc(F)cc(F)c1)N(Cc1ccc(-c2ncon2)cc1)S(=O)(=O)c1ccc(Cl)cc1` (stereo not drawn) [Example 19], the IC50 under setting [1] is 0.25 to 50 nM.

For `NC(=O)C(c1cc(F)cc(F)c1)N(Cc1ccc(-n2cccn2)cc1)S(=O)(=O)c1ccc(Cl)cc1` (stereo not drawn) [Example 12, α-[(4-Chlorobenzenesulfonyl)(4-pyrazolylphenylmethyl)amino]-3,5-difluorobenzene-acetamide], the IC50 is, setting by setting: under setting [1], 0.25 to 50 nM; under setting [2], 9.15 nM.

Consider `NC(=O)C(c1cc(F)cc(F)c1)N(Cc1ccc(-n2cncn2)cc1)S(=O)(=O)c1ccc(Cl)cc1` (stereo not drawn) [Example 11, α-[(4-Chlorobenzenesulfonyl)(4-(1,2,4-triazolyl)-phenylmethyl)amino]-3,5-difluorobenzene-acetamide], for which the IC50 under setting [1] was 0.25 to 50 nM.

With `CC(C)(C)NC(=O)c1ccc(CN(C(C(N)=O)c2cc(F)cc(F)c2)S(=O)(=O)c2ccc(Cl)cc2)cc1` (stereo not drawn) [Example 4, α-[(4-Chlorobenzenesulfonyl)(4-t-butylaminocarbonylphenylmethyl)amino]-3,5-difluorobenzeneacetamide], the IC50 under setting [1] is 0.25 to 50 nM.

On to `CCNC(=O)c1ccc(CN(C(C(N)=O)c2cc(F)cc(F)c2)S(=O)(=O)c2ccc(Cl)cc2)cc1` (stereo not drawn) [Example 3, α-[(4-Chlorobenzenesulfonyl)((4-ethylaminocarbonylphenyl)methyl)amino]-3,5-difluorobenzeneacetamide], for which the IC50 runs as follows: under setting [1], 0.25 to 50 nM; under setting [2], 1.28 nM.

`CNC(=O)c1ccc(CN(C(C(N)=O)c2cc(F)cc(F)c2)S(=O)(=O)c2ccc(Cl)cc2)cc1` (stereo not drawn) [Example 6, α-[(4-Chlorobenzenesulfonyl)(4-methylaminocarbonylphenylmethyl)amino]-3,5-difluorobenzene-acetamide]: the IC50 under setting [1] lay within 0.25 to 50 nM.

With `NC(=O)C(c1cc(F)cc(F)c1)N(Cc1ccc(C(=O)NC2CCC2)cc1)S(=O)(=O)c1ccc(Cl)cc1` (stereo not drawn) [Example 8], the IC50 reads like this: under setting [1], 0.25 to 50 nM; under setting [2], 0.93 nM.

For `NC(=O)C(c1cc(F)cc(F)c1)N(Cc1ccc(C(=O)O)cc1)S(=O)(=O)c1ccc(Cl)cc1` (stereo not drawn) [Example 2, α-[(4-Chlorobenzenesulfonyl)((4-carboxyphenyl)methyl)amino]-3,5-difluorobenzene-acetamide], the IC50 was 50 to 500 nM under setting [1] and 116 nM under setting [2].

Regarding `CCN1CCc2cc(CN(C(C(N)=O)c3cc(F)cc(F)c3)S(=O)(=O)c3ccc(Cl)cc3)ccc2C1=O` (stereo not drawn) [Example 9, α-[(4-Chlorobenzenesulfonyl)(1-oxo-2-ethyl-1,2,3,4-tetrahydroisoquinolin-6-ylmethyl)amino]-3,5-difluorobenzeneacetamide], under setting [1], the IC50 is 0.25 to 50 nM.

For `CCNC(=O)c1ccc(CN(C(C(N)=O)c2ccccc2C)S(=O)(=O)c2ccc(Cl)cc2)cc1` (stereo not drawn) [Example 31, α-[(4-Chlorobenzenesulfonyl)((4-ethylaminocarbonylphenyl)methyl)amino]-2-methylbenzene-acetamide], the IC50 under setting [1] lay in the range of 50 to 500 nM and the IC50 under setting [2] turned out to be 127 nM.

Turning to `Cc1nc(-c2ccc(CN(C(C(N)=O)c3cc(F)cc(F)c3)S(=O)(=O)c3ccc(Cl)cc3)cc2)no1` (stereo not drawn) [Example 18], the IC50 under setting [1] lay in the range of 0.25 to 50 nM.

On to `NC(=O)C(c1cc(F)cc(F)c1)N(Cc1ccc(F)cc1)S(=O)(=O)c1ccc(Cl)cc1` (stereo not drawn) [Example 14, α-[(4-Chlorobenzenesulfonyl)(4-fluorophenylmethyl)amino]-3,5-difluorobenzene-acetamide], for which, under setting [1], the IC50 was in the range of 0.25 to 50 nM.
